Patent US10087469B2, “Method of producing sugar solution, sugar solution, and method of producing ethanol” (Toray Industries, Inc., priority 2012, dated 2018)

System: Pichia stipitis NBRC1687 strain
Experiment: Growth test of Pichia stipitis using model sugar solution (YPDX medium with additive)
Format: cell-based
Parameters: Xylose concentration in the medium / Glucose concentration in the medium: unit not given here
Conditions: for growth inhibitory effect compared with coumaric acid: particularly in consumption rate of glucose
Experimental: In main culture of “A. Growth Test of Pichia Stipitis using Model Sugar solution” described below, any one of coumaramide, coumaric acid, and ferulamide was added in a concentration of 2 ppm to 200 ppm as an additive in a medium, and the medium was subjected to a growth test. As a positive control, a YPDX medium free of an additive was subjected to the same test.
A. Growth Test of Pichia Stipitis Using Model Sugar Solution
A Pichia stipitis NBRC1687 strain was statically cultured at 25° C. in a YPDX agar medium produced by adding 2% agar to a YPDX medium shown in Table 3 below (prepreculture). One of colonies formed on the agar medium was inoculated into 10 mL of the YPDX medium with a platinum loop, and cultured at 25° C. and 120 spm in a test tube with a volume of 20 mL for 48 hours under shaking (preculture). One mL of medium after the preculture was added to 9 mL of YPDX medium, and culture was further continued at 25° C. and 60 spm in a test tube with a volume of 20 mL (main culture). 0, 24, and 48 hours after initiation of the culture, sampling was performed, the monosaccharide concentration and the absorbance (OD660) were measured. Thus, growth of fungus bodies was observed.

[1] = additive 2 ppm, 0 h of main culture
[2] = additive 2 ppm, 24 h of main culture
[3] = additive 2 ppm, 48 h of main culture
[4] = additive 20 ppm, 0 h of main culture
[5] = additive 20 ppm, 24 h of main culture
[6] = additive 20 ppm, 48 h of main culture
[7] = additive 200 ppm, 0 h of main culture
[8] = additive 200 ppm, 24 h of main culture
[9] = additive 200 ppm, 48 h of main culture

Row | SMILES | fermentation inhibitor in the culture of Pichia stipitis | Glucose concentration in the medium [1] | Xylose concentration in the medium [1] | Glucose concentration in the medium [2] | Xylose concentration in the medium [2] | Glucose concentration in the medium [3] | Xylose concentration in the medium [3] | Glucose concentration in the medium [4] | Xylose concentration in the medium [4] | Glucose concentration in the medium [5] | Xylose concentration in the medium [5] | Glucose concentration in the medium [6] | Xylose concentration in the medium [6] | Glucose concentration in the medium [7] | Xylose concentration in the medium [7] | Glucose concentration in the medium [8] | Xylose concentration in the medium [8] | Glucose concentration in the medium [9] | Xylose concentration in the medium [9] | growth inhibitory effect compared with coumaric acid
1 | NC(=O)/C=C/c1ccc(O)cc1 [Coumaramide, coumaramide] | fermentation inhibitors | 10 | 10 | 2.3 | 2.3 | 0 | 0 | 10 | 10 | 4.82 | 9.7 | 0 | 0 | 10 | 10 | 5.9 | 9.5 | 0 | 0.4 | superior to coumaric acid in growth inhibitory
2 | O=C(O)/C=C/c1ccc(O)cc1 [Coumaric Acid, coumaric acid] |  | 10 | 10 | 2.6 | 2.6 | 0 | 0 | 10 | 10 | 2.6 | 8.7 | 0 | 0 | 10 | 10 | 3.6 | 9.2 | 0 | 0 | 
3 | COc1cc(/C=C/C(N)=O)ccc1O [Ferulamide, ferulamide] | fermentation inhibitors | 10 | 10 | 2.3 | 2.3 | 0 | 0 | 10 | 10 | 6.6 | 9.3 | 0 | 0 | 10 | 10 | 6.7 | 9.7 | 0 | 5.2 | superior to coumaric acid in growth inhibitory
